We go through one molecule from patent publication US12529032B2, “Methods and culture substrates for controlled induction of biomimetic neural tissues comprising singular rosette structures” (priority 2017, dated 2026).

For assay [1], the system named is spinal neuroepithelial tissues. Put plainly: Singular neural rosette emergence in micropatterned spinal neuroepithelial tissues, with ROCK inhibition. The following applies: for effect on ability to form neural rosettes: 10 μM ROCK inhibitor, 5 days, spinal neuroepithelial tissues, dihydrochloride. Type of assay: cell-based, human. From the text:
(§1) NEC biomechanical properties vary by regional phenotype and affect rosette emergence behavior: The inefficient induction of singular rosette emergence in spinal neuroepithelial tissues under micropatterning conditions that were highly efficient for forebrain NECs prompted a re-examination of the optimal circular micropattern size for each regional phenotype. Moreover, we investigated how altering the biomechanical properties of each regional neuroepithelial tissue, by partial inhibition of the Rho-associated protein kinase (ROCK), would affect which micropattern size induced optimal singular rosette emergence. D-1 hESCs and 72-hr caudalized NMPs were seeded at 100,000 and 250,000 cells/cm^2, respectively, onto 150 (0.018 mm^2), 180 (0.025 mm^2), 200 (0.031 mm^2), 250 (0.049 mm^2), and 400 μm (0.126 mm^2) diameter circular micropattern arrays to generate forebrain and spinal neuroepithelial tissues (FIGS. 6A-6B and 6D-6E). […] Similar to our previous results, the efficiency of singular neural rosette emergence for forebrain tissues peaked at 85% on 250 μm (0.049 mm^2) diameter circular micropatterns (FIG. 6C). However, in the presence vs. absence of ROCK inhibitor, the efficiency curve shifted leftward inducing singular rosette emergence in 75% vs. 0% of 150 μm (0.018 mm^2), 89% vs. 50% of 180 μm (0.025 mm^2), 87% vs. 58% of 200 μm (0.031 mm^2), and 11% vs. 85% of 250 μm (0.049 mm^2) diameter forebrain neuroepithelial tissues, respectively.
Generation of Micropatterned Spinal Cord Neuroepithelial Tissues: Caudalization of hPSC-derived cultures to generate micropatterned neuroepithelial tissues of the cervical/thoracic spinal cord was performed using a modified version of the deterministic HOX patterning protocol (36). Human PSCs were dissociated with Accutase and seeded onto MATRIGEL™-coated, 6-well TCPS plates at 150,000 cells/cm^2 in E8 media comprising 10 μM ROCK inhibitor. […]

The subject of assay [2] is forebrain neuroepithelial tissues. Put plainly: Singular neural rosette emergence in micropatterned forebrain neuroepithelial tissues, with ROCK inhibition. The assay is classed as cell-based, human. The following applies: for singular rosette emergence efficiency: presence of 10 μM ROCK inhibitor, 5 days.
Text: as §1
Generation of Micropatterned Forebrain Neural Tissues: WA09 or HUES3 Hb9::GFP hESCs were maintained in Essential 8 medium (E8) on MATRIGEL™-coated TCPS plates and routinely passaged with Versene (Thermo Fisher). NEC derivation from hPSCs was performed in accordance with the E6 protocol (23). To generate NEC-derived micropatterned tissues at various stages of neural derivation, cells were first rinsed with PBS, dissociated with Accutase (Thermo Fisher) for 5 minutes at 37° C., and collected via centrifugation at 1000 rpm for 5 minutes. Singularized NECs were re-suspended in E6 media with 10 μM ROCK inhibitor (Y27632; R&D Systems) and seeded onto micropatterned substrates at 75,000 cells/cm^2 in 2 mL of media per well. The following day the media was replaced with 2 mL of E6 media and 50% media changes were performed daily thereafter. Alternatively, to generate hPSC-derived micropatterned tissues, hPSC cultures at ˜85% confluency were rinsed with PBS, dissociated with Accutase for 5 minutes at 37° C. and collected via centrifugation at 1000 rpm for 5 minutes. Singularized hPSCs were then suspended in E8 media with 10 μM ROCK inhibitor and seeded onto micropatterned substrates at 100,000 cells/cm^2 in 2 mL of media per well. The following day the media was replaced with 2 mL of E6 media and 50% media changes were performed daily thereafter.
Immunocytochemistry and Microscopy: Micropatterned tissues were rinsed with PBS and fixed with 4% paraformaldehyde (PFA, Sigma Aldrich) in PBS for 10 minutes at room temperature. Following three rinses with phosphate buffered saline (PBS), the micropatterned substrates were blocked and permeabilized in PBS with 5% Donkey Serum and 0.3% Triton X-100 (TX100; Thermo Fisher) (PBS-DT) for 1 hour at room temperature. Next, the tissues were incubated with primary antibodies diluted in PBS-DT for 2 hours at room temperature or overnight at 4° C. Then, the substrates were rinsed in PBD-DT 3 times for 15 minutes each. Secondary antibodies were diluted in PBS-DT and exposed to the tissues for 1 hour at room temperature. Tissue nuclei were subsequently stained with 300 nM 4′,6-diamidino-2-phenylindoldihydrochloride (DAPI, Sigma Aldrich) for 30 minutes followed by three 15 minute PBS washes. The micropatterned substrates were mounted on glass coverslips using Prolong Gold Antifade Reagent (Thermo Fisher). […]

Turning to `C[C@@H](N)[C@H]1CC[C@H](C(=O)Nc2ccncc2)CC1.Cl.Cl` [ROCK inhibitor, (+)-(R)-trans-4-(1-aminoethyl)-N-(4-pyridyl)cyclohexanecarboxamide dihydrochloride], the “effect on ability to form neural rosettes” value in assay [1] is “completely abolished their ability form neural rosettes”; in assay [1] (listed as Rock inhibitor), “fully eliminate”. The “NEC density in presence vs. absence of ROCK inhibitor” value is “did not vary significantly” in assay [1] (spinal tissues of a given micropattern size, 10 μM) and “did not vary significantly” in assay [2] (forebrain tissues of a given micropattern size, 10 μM). Also, the “effect on rosette formation capacity” value in assay [2] (10 μM Rock inhibitor, forebrain NECs) is recorded as “only partially diminish”. The “singular rosette emergence efficiency” value in assay [2] (150 μm (0.018 mm^2) diameter circular micropatterns) is given as 75%; in assay [2] (180 μm (0.025 mm^2) diameter circular micropatterns), 89%; in assay [2] (200 μm (0.031 mm^2) diameter circular micropatterns), 87%; in assay [2] (250 μm (0.049 mm^2) diameter circular micropatterns), 11%.
